Reference: PubChem BioAssay (NCI)
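Where inhibition never reached the appropriate level, the endpoint shown equals the highest concentration tested. Otherwise, values were interpolated linearly from a five-concentration, 48-hour dose response in 96-well plates. Here, GI50 denotes the concentration required for 50% inhibition of growth. At the TGI there is no net growth.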

What was measured:
Experiment in all cases: DTP human tumour cell line panel, 48 h
LOX IMVI melanoma = test system: LOX IMVI melanoma
HCT-116 colon = test system: HCT-116 colon
PC-3 prostate = test system: PC-3 prostate
COLO 205 colon = test system: COLO 205 colon
NCI-H226 lung = test system: NCI-H226 lung
RPMI-8226 leukemia = test system: RPMI-8226 leukemia
UO-31 renal = test system: UO-31 renal
HT29 colon = test system: HT29 colon
ACHN renal = test system: ACHN renal
MALME-3M melanoma = test system: MALME-3M melanoma

SMILES	GI50 (LOX IMVI melanoma) [µM]	TGI (LOX IMVI melanoma) [µM]	GI50 (HCT-116 colon) [µM]	TGI (HCT-116 colon) [µM]	GI50 (PC-3 prostate) [µM]	TGI (PC-3 prostate) [µM]	GI50 (COLO 205 colon) [µM]	TGI (COLO 205 colon) [µM]	GI50 (NCI-H226 lung) [µM]	TGI (NCI-H226 lung) [µM]	GI50 (RPMI-8226 leukemia) [µM]	TGI (RPMI-8226 leukemia) [µM]	GI50 (UO-31 renal) [µM]	TGI (UO-31 renal) [µM]	GI50 (HT29 colon) [µM]	TGI (HT29 colon) [µM]	GI50 (ACHN renal) [µM]	TGI (ACHN renal) [µM]	TGI (MALME-3M melanoma) [µM]	GI50 (MALME-3M melanoma) [µM]
O=C1C=Cc2cc3ccccc3c3cccc1c23	2.87	12.2	3.16	> 100	3.47	19.1	8.41	> 100	2.61	10	2.62	8.5	7.31	> 100	7.29	> 100	2.06	7.39	–	–
COc1ccc2c(c1)Cc1cc(N=[N+]([O-])c3ccc4c(c3)Cc3cc(OC)ccc3-4)ccc1-2	–	97.7	–	> 100	–	> 100	–	28.6	–	> 100	–	–	–	> 100	–	32.9	–	> 100	> 100	–
Cc1ccc(NC(=O)C(=O)C2C(=O)C3=C(CC2(C)C)NC2C=CC=CC2S3)c(C)c1 (stereo unspecified)	–	> 100	–	> 100	–	> 100	–	> 100	–	> 100	–	–	–	> 100	–	> 100	–	> 100	–	–
COc1ccc(/C(C#N)=C/c2nc3c(N4CCOCC4)nc(Cl)nc3n2C)cc1OC	< 0.01	1.15	< 0.01	1.47	< 0.01	1.52	0.0172	0.0424	–	–	< 0.01	0.315	< 0.01	1.65	< 0.01	1.4	< 0.01	1.25	2.01	< 0.0152
C=C1c2c(C)nn(-c3ccccc3)c2N(C)C23C[C@@H]1C1(C)c4c(C)nn(-c5ccccc5)c4N(C)C(C)(C[C@H]12)C3 (stereo partly specified)	–	–	3.72	> 100	0.979	> 100	–	–	15.3	> 100	–	–	–	–	3.59	> 100	4.78	> 100	93.5	4.19
CCSc1sc(-c2ccc(C)cc2)nc1[P+](c1ccccc1)(c1ccccc1)c1ccccc1	0.267	0.913	0.252	1.17	0.231	1.14	–	–	–	–	0.13	0.477	0.254	0.866	–	–	0.285	1.01	1.06	0.288
COC(=O)C(=O)C(C(=O)C(=O)Nc1ccc(Cl)cc1Cl)c1nc2ccc(Cl)cc2[nH]c1=O (stereo unspecified)	–	> 100	–	> 100	–	> 100	–	> 100	–	> 100	–	–	–	> 100	–	> 100	–	> 100	–	–
Cc1c(Br)cccc1NC(=O)c1sc2nc3c(cc2c1N)CN(Cc1ccccc1)CC3	0.336	> 50	0.182	5.58	0.204	22.4	–	–	1.18	18.9	–	–	0.412	> 50	0.179	5.25	0.444	40	6.04	0.256
O=C1c2cc(Br)ccc2-c2c1c1ccccc1c(=O)n2CCCCl	8.56	61.3	3.05	17.1	18.3	> 100	–	–	–	–	41.6	> 100	41	> 100	–	–	9.19	30.8	–	–
O=C(c1ccc(Cl)cc1)N(C(=S)N1CCN(c2ccccc2)CC1)C1CCCCC1	–	> 100	–	> 100	–	–	–	> 100	–	20.8	–	> 100	–	> 100	–	> 100	–	> 100	> 100	–
c1cc(C2O[C@H]3CCCN3[C@@H]2c2ccncc2)ccn1 (stereo partly specified)	–	> 100	–	> 100	–	–	–	> 100	–	> 100	–	> 100	–	> 100	–	> 100	–	> 100	> 100	–
COc1ccc(-c2ccc(/C=N/n3cnn(CN4CCN(C)CC4)c3=S)o2)c([N+](=O)[O-])c1	23.3	66.8	–	–	39.3	> 100	52.8	> 100	–	–	21.9	54.2	83.9	> 100	28.4	> 100	30.1	70.5	> 100	36.9
CCCCc1c2c(nc3c1CCc1cc(C=O)c(N)nc1-3)/C(=C/c1ccccc1)CCC2	–	> 100	–	> 100	–	–	–	32.3	–	> 100	–	> 100	–	> 100	–	> 100	–	> 100	> 100	–
Nc1nc(Cl)cc2c1ncn2C1OC(CO)C(O)C1O (stereo unspecified)	> 100	> 100	–	–	> 100	> 100	> 100	> 100	–	–	> 100	> 100	> 100	> 100	> 100	> 100	> 100	> 100	> 100	> 100
COC(=O)CC[C@@H](NC(=O)C(C)NC(=O)COC1C(O)C(COC(=O)CCCCCCCCCCNC(=O)c2ccc([N+](=O)[O-])c3[nH]c4cc(Br)ccc4c(=O)c23)OC(OCc2ccccc2)C1NC(C)=O)C(N)=O (stereo partly specified)	–	> 100	–	> 100	–	–	–	> 100	–	98	–	> 100	–	> 100	–	> 100	–	> 100	> 100	–
O=C(CCCCCCCCC(=O)OCCCn1cc(C(=O)NC(=O)OCc2ccccc2)c(=O)[nH]c1=O)OCCCn1cc(C(=O)NC(=O)OCc2ccccc2)c(=O)[nH]c1=O	–	> 100	–	> 100	–	–	–	> 100	–	> 100	–	> 100	–	> 100	–	> 100	–	> 100	> 100	–
CCOc1cccc2cccnc12	–	> 100	–	> 100	–	–	–	> 100	–	> 100	–	> 100	–	> 100	–	> 100	–	> 100	> 100	–
CC1=NN(C(=O)CC(=O)Nc2ccccc2)C(=O)C1N=Nc1ccc(S(N)(=O)=O)cc1 (stereo unspecified)	–	> 100	–	> 100	–	–	–	> 100	–	> 100	–	> 100	–	> 100	–	> 100	–	> 100	> 100	–
OCCOCn1nc(-c2ccccc2)nc1-c1cnccn1	–	> 100	–	> 100	–	> 100	–	> 100	–	–	–	> 100	–	> 100	–	> 100	–	–	–	–
CC(=O)NC1=NC(=O)/C(=C/c2ccc(Cl)cc2Cl)N1C	–	> 100	–	> 100	–	> 100	–	> 100	–	82.5	–	–	–	> 100	–	> 100	–	> 100	–	–
CCOC(=O)C(=C=Cc1cccs1)C(=O)c1ccccc1	–	24.9	–	27.7	–	–	–	31.4	–	32.7	–	44.5	–	27.3	–	34.5	–	33.3	29.3	–
COc1cc(OC)cc(-c2n[nH]nc2-c2ccc3c(c2)OCO3)c1	0.545	87.1	0.181	15.6	0.255	43.7	–	–	5.15	> 100	0.326	22.1	0.661	72.7	0.392	12.5	0.705	> 100	–	–
CC(C)OCC(O)COc1cc(=O)oc2ccccc12 (stereo unspecified)	–	> 100	–	> 100	–	> 100	–	> 100	–	–	–	> 100	–	> 100	–	> 100	–	> 100	> 100	–
COc1cc(C=C2C(=O)OC(C)(C)OC2=O)cc(OC)c1OC	–	> 100	–	> 100	–	–	–	> 100	–	> 100	–	> 100	–	> 100	–	> 100	–	> 100	> 100	–
Cn1c(=O)c2[nH]c(Nc3ccccc3)nc2n(C)c1=O	–	> 10	–	–	–	> 10	–	> 10	–	–	–	> 10	–	–	–	> 10	–	–	> 10	–
COC(=O)C1=C(O)C(C(=O)OC)[C@@]2(O)[C@@H](C(=O)OC)C(c3ccccc3C(F)(F)F)C[C@@H]1[C@@H]2C(=O)OC (stereo partly specified)	–	–	6.34	18.8	6.02	24.7	0.175	2.27	–	–	2.4	> 100	13	26.5	0.228	5.3	1.61	3.05	–	–
CC(=O)OC1CC[C@@]2(C)C(CC(OC3OC(CO)C(O)C(O)C3O)[C@]3(C)C2CCC24CC23CC[C@H]4C(C)CC(O)[C@@H](O)C(C)(C)O)C1(C)C (stereo partly specified)	–	15.5	–	18.9	–	–	–	17.1	–	48.5	–	24.8	–	> 50	–	> 50	–	> 50	18.8	–
COC1=C(C(=O)OC(C)(C)C)C23CCCCC2(C(C(=O)OC(C)(C)C)=C(OC)C3C(=O)OC(C)(C)C)C1C(=O)OC(C)(C)C (stereo unspecified)	–	> 100	–	> 100	–	–	–	32.8	–	> 100	–	> 100	–	> 100	–	> 100	–	> 100	> 100	–
